US20090274676A1, “COMBINATION OF DEHYDROEPIANDROSTERONE OR DEHYDROEPIANDROSTERONE-SULFATE WITH A PDE-4 INHIBITOR FOR TREATMENT OF ASTHMA OR CHRONIC OBSTRUCTIVE PULMONARY DISEASE” (priority 2003, published 2009)
Like-named read-outs stand apart in the source and are kept apart here.

How the values were obtained:
[1] = HPLC analysis of drug degradation during jet milling; format: physicochemical; settings: HPLC peak area vs unmilled standard
Method: Two vials (A; single-pass; 150 mg) and (B double-pass; 600 mg) of the micronized drug were available for determining drug degradation during jet milling micronization. […] The chromatographic peak area for the HPLC assay of the unmilled drug standard solution (10 mg/ml) gave a value of 23,427. […] The chromatographic peak areas for vials A and B were 11,979 and 11,677, respectively.

Solubility of DHEA-S = format: physicochemical; settings: for Solubility: range of triplicates
Source text: Inhalation of pure water can produce a cough stimulus. […] The temperature effect is weaker at high NaCl concentrations.

[2] = Short-term solution stability of DHEA-S nebulizer formulation; format: physicochemical; settings: for Appearance of solution on storage: 10 mg/mL in 0.12% NaCl
Method: Aliquots of this solution are filled into clear glass vials and stored at RT (24-26° C.) and at 40° C. The samples are checked daily for DHEA-S content, DHEA content, and appearance. For each time point, duplicate samples are withdrawn and diluted from each vial. […] The study is stopped on day three. […] The solution should easily be stable for the day of reconstitution in a clinical trial. The following section describes the aerosol properties of this formulation.

adenosine = assay: In vivo effect on adenosine levels in rat tissues (HPLC of tissue adenosine)
Method: Folinic acid (50 mg/kg) was administered intraperitoneally once daily for fourteen days. […] Hearts were removed from animals and flash frozen in liquid nitrogen with 10 s of death. Liver and lungs were removed en bloc and flash frozen with 30 s of death. Brain tissue was subsequently dissected.

HT-29 SF cells [3] = assay: DHEA effect on cell growth (Coulter counter); format: cell-based, human; settings: 12.5-200 μM, 24-72 hours
HT-29 SF cells [4] = assay: DHEA effect on cell cycle (flow cytometry); format: cell-based, human
Method: Cells were plated at 10^5/60-mm dish in duplicate. […] Cultures were trypsinized following 0, 24, 48, or 74 hours and fixed and stained using a modification of a procedure of Bauer et al., Cancer Res. 46, 3173-3178 (1986). Briefly, cells were collected by centrifugation and resuspended in cold phosphate-buffered saline. Cells were fixed in 70% ethanol, washed, and resuspended in phosphate-buffered saline.
After 24, 48, and 72 hours, cells were harvested, fixed in ethanol, and stained with propidium iodide, and the DNA content/cell was determined by flow cytometric analysis. The percentage of cells in G1, S, and G2M phases was calculated using the Cellfit cell cycle analysis program. S phase is marked by a quadrangle for clarity. Representative histograms from duplicate determinations are shown. The experiment was repeated three times.

[5] = Physicochemical testing of DHEA-S dihydrate before and after micronization; settings: for Water (% w/w): Karl Fischer
Method: Surface area is determined using five point BET analyses are performed with nitrogen as the adsorbing gas (P/Po=0.05 to 0.30) using a Micromeritics TriStar surface area analyzer. Particle size distributions are measured by laser diffraction using a Micromeritics Saturn Digisizer where the particles are suspended in mineral oil with sodium dioctyl sodium sulfosuccinate as a dispersing agent. Drug substance water content is measured by Karl Fischer titration (Schott Titroline KF). Pure water is used as the standard and all relative standard deviations for triplicates are less than 1%. Powder is added directly to the titration media.

[6] = Aerosolization of neat DHEA-S dihydrate, Acu-Breathe single-dose inhaler, fine particle fraction; format: physicochemical; settings: neat powder, Acu-Breathe, 30 to 75 L/min, all flow rates
Source text: The single-dose Acu-Breathe device is used for evaluating DHEA-S.dihydrate. […] These blisters are actuated into the Andersen 8-stage cascade impactor at flow rates ranging from 30 to 75 L/min with a glass twin-impinger throat. Stages 1-5 of the Andersen impactor are rinsed together to obtain an estimate of the fine particle fraction. Pooling the drug collected from multiple stages into one assay make the method much more sensitive. […] Using a carrier with a larger particle size typically improves the aerosol properties of micronized drug substances.

[7] = Solid-state stability with and without lactose at 50° C. (HPLC, DHEA formation); format: physicochemical
Source text: These conditions were used to stress the formulation in order to predict its long-term stability results. […] The primary degradant is DHEA. […] The materials on accelerated storage become more cohesive with time as evidenced by clumping during sample weighing for chemical analysis. […] This is a considerable disadvantage since lactose is the most commonly used inhalation excipient for dry powder formulations. Continuing with the virtually anhydrous form would mean limiting formulations to neat powder or undertaking more comprehensive safety studies to use a novel excipient.

HT-29 SF cells [8] = assay: Reversal of DHEA-mediated growth inhibition; format: cell-based, human; settings: 25 μM DHEA, supplement in medium, 48 hours
HT-29 SF cells [9] = assay: Reversal of DHEA effect on cell cycle (flow cytometry); format: cell-based, human; settings: 25 μM DHEA, 48 hours
asthma = settings: 657 patients with asthma, cited from earlier work
[10] = Folinic Acid 50 mg/kg intraperitoneally once daily 14 days, mean±SEM

C[C@]12CC[C@H](OS(=O)(=O)[O-])CC1=CC[C@@H]1[C@@H]2CC[C@]2(C)C(=O)CC[C@@H]12.[Na+] [DHEA-S, sodium dehydroepiandrostenone sulfate]
Degradation of the drug during jet milling micronization [1]: no detectable degradation | Solubility (Solubility of DHEA-S; 0.9% NaCl, refrigerated (7-8° C.)): 1100 to 1300 µg/mL | Ksp (Solubility of DHEA-S; 15° C., interpolated): ~1316 mM^2 | Solubility in hexane (Solubility of DHEA-S; hexane): insoluble | Equilibrium constant Ksp (Solubility of DHEA-S; refrigerated (7-8° C.)): 665 mM^2 | Equilibrium constant Ksp (Solubility of DHEA-S; room temperature (24-25° C.)): 2236 mM^2 | Solubility (Solubility of DHEA-S; ~25° C., 0% NaCl): 16500 to 17400 µg/mL | Stability of nebulizer formulation ([2]; 7.5 mg/mL in 0.12% NaCl, RT): stable for at least one day | Appearance of solution on storage ([2]; 40° C.): became cloudy after two days of storage | Appearance of solution on storage ([2]; RT (24-26° C.)): slight precipitate is observed on the third day

Nc1nc(=O)c2c([nH]1)NCC(CNc1ccc(C(=O)N[C@@H](CCC(=O)O)C(=O)O)cc1)N2C=O (mixture of isomers) [Folinic Acid, Folinic acid]
Intracellular adenosine, Brain (adenosine; [10]): 0.72 ± 0.09 nmols/mg protein | Intracellular adenosine, Heart (adenosine; [10]): 12.4 ± 2.1 nmols/mg protein | Intracellular adenosine, Liver (adenosine; [10]): 16.4 ± 2.4 nmols/mg protein | Effect on adenosine levels when administered alone (adenosine; all organs studied): increase in adenosine levels | Effect of coadministration on steroid-mediated adenosine depletion (adenosine; coadministered with DHEA or methyltestosterone): completely abrogated

C[C@]12CC[C@H](O)CC1=CC[C@@H]1[C@@H]2CC[C@]2(C)C(=O)CC[C@@H]12 [DHEA, 3β-hydroxyandrost-5-en-17-one]
Solubility in water (Solubility of DHEA-S; water): insoluble in water | Effect on growth of HT-29 cells (HT-29 SF cells [3]): time- and dose-dependent inhibition of growth | Percentage of cells in G1 / S phase (HT-29 SF cells [4]; 200 μM, after 24 hours): more rapid increase in the percentage of cells in G1 and a decreased proportion of cells in S phase | G2M phase cells (HT-29 SF cells [4]; 25 or 50 μM, after 48 hours): transient increase | Percentage of cells in G1 phase (HT-29 SF cells [4]; 25 or 50 μM, after 72 hours): increased | Cell cycle distribution (HT-29 SF cells [4]; 25 or 50 μM, after the initial 24 hours): unchanged | Overall effect on cell cycle (HT-29 SF cells [4]; time- and dose-dependent): G1 block

CC12CCC3C(CC=C4CC(OS(=O)(=O)[O-])CCC43C)C1CCC2=O.[Na+] (stereo not drawn) [DHEA-S Dihydrate]
Particle size (D50%) ([5]; Bulk): 31 microns | Water (% w/w) ([5]; Bulk): 8.5 % w/w | Particle size (D50%) ([5]; Micronized): 3.7 microns | Water (% w/w) ([5]; Micronized): 8.4 % w/w | Surface area (m^2/g) ([5]; Micronized, five point BET): 4.9 m^2/g | Fine particle fraction compared with virtually anhydrous material [6]: higher fine particle fraction | Colour after storage ([7]; 1 week at 50° C.): no change in color | DHEA % formed ([7]; 50° C., 1 week): 0.216% | DHEA % formed ([7]; 50° C., 3 weeks): 0.317% | DHEA % formed ([7]; 50° C., 4 weeks): 0.374% | DHEA % formed ([7]; Control, initial (Time=0)): 0.213% | DHEA % formed ([7]; Control, sealed, 25° C., 4 weeks): 0.218% | Water content, starting value ([7]; before storage): 8.8% | Water content after accelerated storage ([7]; one week at 50° C.): 8.66%

CC(C)=CCC/C(C)=C/CC/C(C)=C/CC/C=C(\C)CC/C=C(\C)CCC=C(C)C [SQ, squalene]
Reversal of DHEA-induced growth inhibition (HT-29 SF cells [8]): no such effect

CC(C)CCC[C@@H](C)[C@H]1CC[C@H]2[C@@H]3CC=C4C[C@@H](O)CC[C@]4(C)[C@H]3CC[C@]12C [CH, cholesterol]
Reversal of DHEA-induced growth inhibition (HT-29 SF cells [8]): no such effect | Prevention of DHEA-induced S phase depletion (HT-29 SF cells [9]): very little effect

C[C@]12CCC(=O)C=C1CC[C@@H]1[C@@H]2CC[C@@]2(C)[C@H]1CC[C@]2(C)O [Methyltestosterone, methyltestosterone]
Intracellular adenosine, Liver (adenosine; Methyltestosterone 40 mg/kg, mean±SEM): 16.5 ± 0.9 nmols/mg protein | Intracellular adenosine, Liver (adenosine; Methyltestosterone 120 mg/kg, mean±SEM): 5.1 ± 0.5 nmols/mg protein

C[C@@](O)(CCO)CC(=O)O [MVA, mevalonic acid]
Reversal of DHEA-induced growth inhibition (HT-29 SF cells [8]): partially overcome | Prevention of DHEA-induced S phase depletion (HT-29 SF cells [9]): partially prevented

O=C(Nc1c(Cl)cncc1Cl)c1ccc(OC(F)F)c(OCC2CC2)c1 [Roflumilast]
Reduction of number of exacerbations compared to placebo (asthma; higher dose): 48% | Reduction of number of exacerbations compared to placebo (asthma; lower dose): 8%
